Assays:
Human HDAC1 = target: T1, Human HDAC1 (Homo sapiens, UniProt Q13547); assay: HDAC1 biochemical assay, AMC-labeled peptide substrate; conditions: read-out: HDAC Isoform IC50 (nM) 1
T1 construct: full length with C-terminal His-tag and C-terminal FLAG-tag; His (C); FLAG (C); host or cells: baculovirus expression system
Summary of the method: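 Baculovirus-expressed full-length human HDAC1 with His and FLAG tags, 0.3 ng/ul, incubated 1 h at 30° C with compound and 50 μM RHKK(Ac)AMC in Tris pH 8.0 buffer with BSA and 1% DMSO. Developer then releases AMC from deacetylated substrate; fluorescence read at 360/460 nm.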

Human HDAC4 = target: T2, Human HDAC4 (Homo sapiens, UniProt P56524); assay: HDAC4 biochemical assay, class IIa-specific substrate; conditions: read-out: HDAC Isoform IC50 (nM) 4
T2 construct: amino acids 627-1085 with N-terminal GST tag; GST (N); host or cells: baculovirus expression system
T2 sequence (P56524 627-1084 limits assumed): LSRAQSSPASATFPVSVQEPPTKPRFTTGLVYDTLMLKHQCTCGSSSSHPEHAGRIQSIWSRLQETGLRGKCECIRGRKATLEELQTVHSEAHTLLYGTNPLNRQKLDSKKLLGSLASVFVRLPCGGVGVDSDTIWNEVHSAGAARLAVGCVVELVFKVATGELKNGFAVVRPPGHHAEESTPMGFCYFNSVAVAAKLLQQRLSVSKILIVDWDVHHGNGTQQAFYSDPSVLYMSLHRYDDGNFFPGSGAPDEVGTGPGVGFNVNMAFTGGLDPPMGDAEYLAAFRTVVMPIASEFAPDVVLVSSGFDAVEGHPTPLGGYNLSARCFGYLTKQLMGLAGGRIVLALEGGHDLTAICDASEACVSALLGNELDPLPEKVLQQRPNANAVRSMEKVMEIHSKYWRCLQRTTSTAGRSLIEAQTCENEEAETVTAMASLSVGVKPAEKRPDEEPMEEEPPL
Summary of the method: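 GST-tagged human HDAC4 (aa 627-1085, baculovirus) at 0.004 ng/ul was incubated 30 min at room temperature with 50 μM class IIa-specific substrate BOC-Lys(trifluoroacetyl)-AMC in Tris-HCl pH 8.0 buffer with BSA, 1% DMSO. Developer then released AMC, read at 360/460 nm.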

Human HDAC5 = target: T3, Human HDAC5 (Homo sapiens, UniProt Q9UQL6); assay: HDAC5 biochemical assay, class IIa-specific substrate; conditions: read-out: HDAC Isoform IC50 (nM) 5
T3 construct: full length with C-terminal His tag, MW=51.1 kDa; His (C); host or cells: baculovirus expression system
T3 sequence (Q9UQL6 656-1122 limits assumed): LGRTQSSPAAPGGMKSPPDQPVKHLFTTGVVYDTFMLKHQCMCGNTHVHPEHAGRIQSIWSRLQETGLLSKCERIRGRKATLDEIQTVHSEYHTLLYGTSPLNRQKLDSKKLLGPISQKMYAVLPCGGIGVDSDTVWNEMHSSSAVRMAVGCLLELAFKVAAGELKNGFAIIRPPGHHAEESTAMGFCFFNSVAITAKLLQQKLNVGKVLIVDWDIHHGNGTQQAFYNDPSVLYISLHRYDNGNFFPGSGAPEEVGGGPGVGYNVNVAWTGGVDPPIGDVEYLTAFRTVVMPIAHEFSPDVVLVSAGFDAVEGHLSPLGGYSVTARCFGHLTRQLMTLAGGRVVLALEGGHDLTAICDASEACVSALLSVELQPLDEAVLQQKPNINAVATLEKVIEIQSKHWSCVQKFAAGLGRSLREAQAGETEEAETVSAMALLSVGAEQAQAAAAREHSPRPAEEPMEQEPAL
Summary of the method: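 Full-length C-terminal His-tagged HDAC5 from baculovirus (0.05 ng/ul) incubated 30 min at room temperature with 50 μM Boc-Lys(trifluoroacetyl)-AMC and compound, Tris pH 8.0 buffer with BSA, 1% DMSO. Developer then releases AMC; fluorescence 360/460 nm.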

Recombinant human HDAC6 = target: T4, Recombinant human HDAC6 (Homo sapiens, UniProt Q9UBN7); assay: HDAC6 biochemical assay, AMC-labeled peptide substrate; conditions: HDAC6; read-out: HDAC Isoform IC50 (nM) 6
T4 construct: full length, MW=159 kDa; GST (N); host or cells: Sf9 insect cells (baculovirus)
T4 sequence (Q9UBN7 1-1215): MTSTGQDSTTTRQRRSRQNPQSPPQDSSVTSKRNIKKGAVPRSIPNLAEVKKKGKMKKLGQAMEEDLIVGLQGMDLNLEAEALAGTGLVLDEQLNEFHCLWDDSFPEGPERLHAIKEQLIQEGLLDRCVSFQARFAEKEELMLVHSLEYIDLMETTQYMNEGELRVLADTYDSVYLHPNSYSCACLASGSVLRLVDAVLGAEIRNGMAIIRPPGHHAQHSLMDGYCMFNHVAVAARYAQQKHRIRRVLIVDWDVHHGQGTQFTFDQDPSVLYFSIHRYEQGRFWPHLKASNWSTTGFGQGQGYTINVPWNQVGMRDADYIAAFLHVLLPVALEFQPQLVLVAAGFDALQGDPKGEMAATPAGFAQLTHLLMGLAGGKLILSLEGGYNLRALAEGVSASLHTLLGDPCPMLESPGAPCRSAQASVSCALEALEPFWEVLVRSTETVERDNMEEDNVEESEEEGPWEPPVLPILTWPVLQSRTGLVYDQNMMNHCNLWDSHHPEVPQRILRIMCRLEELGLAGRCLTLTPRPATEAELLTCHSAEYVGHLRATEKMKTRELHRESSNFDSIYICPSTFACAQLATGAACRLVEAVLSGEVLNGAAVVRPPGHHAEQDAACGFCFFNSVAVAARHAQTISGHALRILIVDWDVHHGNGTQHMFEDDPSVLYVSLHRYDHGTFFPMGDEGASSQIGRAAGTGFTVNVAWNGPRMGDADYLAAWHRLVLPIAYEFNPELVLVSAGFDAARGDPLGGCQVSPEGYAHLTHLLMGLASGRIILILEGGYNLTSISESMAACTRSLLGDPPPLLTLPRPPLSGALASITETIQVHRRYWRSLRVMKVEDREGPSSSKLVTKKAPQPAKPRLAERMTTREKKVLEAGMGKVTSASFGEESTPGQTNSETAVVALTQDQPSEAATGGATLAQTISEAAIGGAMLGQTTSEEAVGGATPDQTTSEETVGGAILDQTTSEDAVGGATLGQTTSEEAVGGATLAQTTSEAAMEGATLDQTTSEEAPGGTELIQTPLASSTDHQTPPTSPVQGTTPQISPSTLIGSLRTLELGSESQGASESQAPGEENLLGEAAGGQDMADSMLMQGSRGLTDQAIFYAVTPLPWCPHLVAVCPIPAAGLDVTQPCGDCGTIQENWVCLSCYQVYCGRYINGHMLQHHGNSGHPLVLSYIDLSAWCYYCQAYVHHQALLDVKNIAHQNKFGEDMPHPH
Summary of the method: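 Two-step fluorogenic read-out: enzyme deacetylates 50 μM RHKK(Ac)AMC for 1 h at 30° C in pH 8.0 Tris buffer with BSA and 1% DMSO, then developer cleavage gives signal at Ex 360/Em 460. Enzyme: 0.3 ng/ul recombinant full-length human HDAC6, GST-tagged, Sf9-expressed.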

Human HDAC7 = target: T5, Human HDAC7 (Homo sapiens, UniProt Q8WUI4); assay: HDAC7 biochemical assay, class IIa-specific substrate; conditions: read-out: HDAC Isoform IC50 (nM) 7
T5 construct: (a.a. 518-end) with N-terminal GST tag; GST (N); host or cells: baculovirus expression system
T5 sequence (Q8WUI4 518-952 limits assumed): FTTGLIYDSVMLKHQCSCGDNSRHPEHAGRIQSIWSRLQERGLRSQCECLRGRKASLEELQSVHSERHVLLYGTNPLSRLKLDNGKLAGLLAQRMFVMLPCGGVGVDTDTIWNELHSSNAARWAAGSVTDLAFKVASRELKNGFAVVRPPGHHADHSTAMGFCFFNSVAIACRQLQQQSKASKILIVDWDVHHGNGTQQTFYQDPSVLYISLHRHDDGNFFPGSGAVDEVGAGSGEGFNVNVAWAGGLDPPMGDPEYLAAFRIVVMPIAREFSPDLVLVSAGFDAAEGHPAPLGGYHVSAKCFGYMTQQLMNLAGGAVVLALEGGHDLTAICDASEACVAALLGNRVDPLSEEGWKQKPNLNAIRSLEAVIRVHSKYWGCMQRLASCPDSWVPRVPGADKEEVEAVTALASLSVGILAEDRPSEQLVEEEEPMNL
Summary of the method: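 GST-tagged HDAC7 (a.a. 518-end, baculovirus-expressed) at 0.001 ng/ul with 50 μM Boc-Lys(trifluoroacetyl)-AMC substrate, 30 min at room temperature in pH 8.0 Tris buffer with BSA, 1% DMSO final. Developer then releases AMC; fluorescence read at 360/460 nm.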

Human HDAC9 = target: T6, Human HDAC9 (Homo sapiens, UniProt Q9UKV0); assay: HDAC9 biochemical assay, class IIa-specific substrate; conditions: read-out: HDAC Isoform IC50 (nM) 9
T6 construct: amino acids 604-1066 with C-terminal His tag; His (C); host or cells: baculovirus expression system
T6 sequence (Q9UKV0 604-1066 isoform Q9UKV0-5): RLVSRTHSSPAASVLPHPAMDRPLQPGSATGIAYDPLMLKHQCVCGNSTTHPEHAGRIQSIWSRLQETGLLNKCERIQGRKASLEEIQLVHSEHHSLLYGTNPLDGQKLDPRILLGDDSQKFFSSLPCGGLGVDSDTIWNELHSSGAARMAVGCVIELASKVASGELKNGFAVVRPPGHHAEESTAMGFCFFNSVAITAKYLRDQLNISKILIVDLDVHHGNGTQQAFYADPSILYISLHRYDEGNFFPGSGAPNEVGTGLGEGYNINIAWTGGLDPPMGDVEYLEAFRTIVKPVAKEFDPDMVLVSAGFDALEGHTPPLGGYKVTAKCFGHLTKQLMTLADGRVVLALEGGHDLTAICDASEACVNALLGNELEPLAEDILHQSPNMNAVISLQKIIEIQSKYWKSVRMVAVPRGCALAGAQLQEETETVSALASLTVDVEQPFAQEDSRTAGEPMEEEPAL
Summary of the method: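 HDAC9 residues 604-1066 (C-terminal His tag, baculovirus-expressed) at 0.06 ng/ul with 50 μM class IIa substrate Boc-Lys(trifluoroacetyl)-AMC in Tris-HCl pH 8.0 buffer with BSA and 1% DMSO. 30 min at room temperature, then developer added; fluorescence read at 360/460 nm Ex/Em.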

T1 sequence (Q13547 whole entry, canonical isoform): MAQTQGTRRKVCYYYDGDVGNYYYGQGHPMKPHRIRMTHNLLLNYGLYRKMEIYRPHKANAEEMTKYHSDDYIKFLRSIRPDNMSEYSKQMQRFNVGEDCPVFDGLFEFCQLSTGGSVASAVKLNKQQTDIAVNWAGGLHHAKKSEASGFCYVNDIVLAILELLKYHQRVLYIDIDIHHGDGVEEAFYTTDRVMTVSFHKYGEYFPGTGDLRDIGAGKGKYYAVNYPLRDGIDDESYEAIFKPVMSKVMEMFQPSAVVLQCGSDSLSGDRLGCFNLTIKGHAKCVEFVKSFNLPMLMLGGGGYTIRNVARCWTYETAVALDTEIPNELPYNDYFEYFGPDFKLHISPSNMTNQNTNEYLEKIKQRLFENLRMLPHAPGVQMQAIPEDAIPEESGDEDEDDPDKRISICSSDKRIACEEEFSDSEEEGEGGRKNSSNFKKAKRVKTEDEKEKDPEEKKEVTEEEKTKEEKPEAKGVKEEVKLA

| Structure (SMILES) | IC50 (Human HDAC1) [nM] | IC50 (Human HDAC4) [nM] | IC50 (Human HDAC5) [nM] | IC50 (Recombinant human HDAC6) [nM] | IC50 (Human HDAC7) [nM] | IC50 (Human HDAC9) [nM] |
| --- | --- | --- | --- | --- | --- | --- |
| CN(C)c1nccc(N(Cc2ccc(-c3noc(C(F)(F)F)n3)s2)c2cnccn2)n1 [Example CC, N2,N2-Dimethyl-N4-(pyrazin-2-yl)-N4-({5-[5-(trifluoromethyl)-1,2,4-oxadiazol-3-yl]thiophen-2-yl}methyl)pyrimidine-2,4-diamine] | > 10000 | ≤ 10000 | ≤ 10000 | ≤ 10000 | ≤ 10000 | ≤ 10000 |
| FC(F)(F)c1nc(-c2ccc(CN(c3cnccn3)c3cncnc3C3CC3)s2)no1 [Example CZ, 4-Cyclopropyl-N-(pyrazin-2-yl)-N-({5-[5-(trifluoromethyl)-1,2,4-oxadiazol-3-yl]thiophen-2-yl}methyl)pyrimidin-5-amine] | > 10000 | ≤ 500 | ≤ 500 | ≤ 10000 | ≤ 500 | ≤ 1000 |
| FC(F)(F)c1nc(-c2ccc(CN(c3cnccn3)c3cnsn3)s2)no1 [Example S, N-(1,2,5-Thiadiazol-3-yl)-N-({5-[5-(trifluoromethyl)-1,2,4-oxadiazol-3-yl]thiophen-2-yl}methyl)pyrazin-2-amine] | > 10000 | ≤ 1000 | ≤ 10000 | ≤ 10000 | ≤ 10000 | ≤ 10000 |
| FC(F)(F)c1cnnc(N(Cc2ccc(-c3noc(C(F)(F)F)n3)s2)c2cccnc2)c1 [Example EI, N-(Pyridin-3-yl)-5-(trifluoromethyl)-N-({5-[5-(trifluoromethyl)-1,2,4-oxadiazol-3-yl]thiophen-2-yl}methyl)pyridazin-3-amine] | > 10000 | ≤ 10000 | ≤ 1000 | ≤ 10000 | ≤ 10000 | ≤ 10000 |
| FC(F)(F)c1cnnc(N(Cc2ccc(-c3noc(C(F)(F)F)n3)s2)c2ccc(C(F)(F)F)nn2)c1 [Example EV, 6-(Trifluoromethyl)-N-({5-[5-(trifluoromethyl)-1,2,4-oxadiazol-3-yl]thiophen-2-yl}methyl)-N-[5-(trifluoromethyl)pyridazin-3-yl]pyridazin-3-amine] | > 10000 | ≤ 10000 | ≤ 10000 | ≤ 10000 | ≤ 10000 | > 10000 |
| FC(F)(F)c1ncc(N(Cc2ccc(-c3noc(C(F)(F)F)n3)s2)c2cnccn2)cn1 [Example CV, N-(Pyrazin-2-yl)-2-(trifluoromethyl)-N-({5-[5-(trifluoromethyl)-1,2,4-oxadiazol-3-yl]thiophen-2-yl}methyl)pyrimidin-5-amine] | > 10000 | ≤ 1000 | ≤ 1000 | ≤ 10000 | ≤ 1000 | ≤ 10000 |
| COc1cncnc1N(Cc1ccc(-c2noc(C(F)(F)F)n2)s1)c1cnccn1 [Example CP, 5-Methoxy-N-(pyrazin-2-yl)-N-({5-[5-(trifluoromethyl)-1,2,4-oxadiazol-3-yl]thiophen-2-yl}methyl)pyrimidin-4-amine] | > 10000 | ≤ 10000 | ≤ 10000 | ≤ 1000 | ≤ 10000 | ≤ 10000 |
| Cc1ccc(N(Cc2ccc(-c3noc(C(F)(F)F)n3)s2)c2cnccn2)nn1 [Example DF, 6-Methyl-N-(pyrazin-2-yl)-N-({5-[5-(trifluoromethyl)-1,2,4-oxadiazol-3-yl]thiophen-2-yl}methyl)pyridazin-3-amine] | > 10000 | ≤ 10000 | ≤ 10000 | ≤ 10000 | ≤ 10000 | ≤ 10000 |
| FC(F)(F)c1nc(-c2ccc(CN(c3cnccn3)c3cncnc3C(F)(F)F)s2)no1 [Example DA, N-(Pyrazin-2-yl)-4-(trifluoromethyl)-N-({5-[5-(trifluoromethyl)-1,2,4-oxadiazol-3-yl]thiophen-2-yl}methyl)pyrimidin-5-amine] | > 10000 | ≤ 1000 | ≤ 10000 | ≤ 10000 | ≤ 10000 | ≤ 10000 |
| FC(F)(F)c1cnnc(N(Cc2ccc(-c3noc(C(F)(F)F)n3)s2)c2ccc(N3CCCC3)nn2)c1 [Example EW, 6-(Pyrrolidin-1-yl)-N-({5-[5-(trifluoromethyl)-1,2,4-oxadiazol-3-yl]thiophen-2-yl}methyl)-N-[5-(trifluoromethyl)pyridazin-3-yl]pyridazin-3-amine] | > 10000 | ≤ 10000 | ≤ 10000 | ≤ 10000 | ≤ 10000 | ≤ 10000 |
| Cc1ncncc1N(Cc1ccc(-c2noc(C(F)(F)F)n2)s1)c1cnccn1 [Example CX, 4-Methyl-N-(pyrazin-2-yl)-N-({5-[5-(trifluoromethyl)-1,2,4-oxadiazol-3-yl]thiophen-2-yl}methyl)pyrimidin-5-amine] | > 10000 | ≤ 500 | ≤ 500 | ≤ 10000 | ≤ 500 | ≤ 1000 |
| COc1cnnc(N(Cc2ccc(-c3noc(C(F)(F)F)n3)s2)c2cnccn2)c1 [Example DV, 5-Methoxy-N-(pyrazin-2-yl)-N-({5-[5-(trifluoromethyl)-1,2,4-oxadiazol-3-yl]thiophen-2-yl}methyl)pyridazin-3-amine] | > 10000 | ≤ 10000 | ≤ 1000 | ≤ 10000 | ≤ 10000 | ≤ 10000 |

Reference: patent US20210038607A1, “OXADIAZOLYLTHIOPHENE DERIVATIVES USEFUL AS HISTONE DEACETYLASE INHIBITORS” (Karus Therapeutics Limited, priority 2018, published 2021)
